Measured values from patent US9551036B2, “Metabolic gene mesenchymal signatures and uses thereof” (Whitehead Institute for Biomedical Research, priority 2013, dated 2017).
Entries after “also recorded” stand apart in the source; their conditions may differ.

Legend:
HMLE-Twist-ER cells [1] = assay: LC-MS measurement of cellular DHU and uracil; assay type: cell-based, human; details: OHT treatment of HMLE-Twist-ER cells, 15 days time course
Method: Solvents were obtained from Fisher Scientific and were Optima LC/MS grade except where otherwise specified. Cells grown in standard tissue culture plates (500,000 cells per sample) were washed twice in an ice-cold solution of 0.9% NaCl in deionized water, followed by extraction on dry ice in 1 mL 80% methanol containing 10 ng/mL phenylalanine-d8 and valine-d8 (Sigma-Aldrich) as internal standards. The cell mixtures were shaken vigorously on a Vortex mixer for 10 min. at 4° C., vacuum-dried, and resuspended in 100 μL LC/MS grade water (Fisher). These extracts were then centrifuged at 15,000×g at 4° C. for 10 min, and the supernatants were passed through a cellulose acetate particulate filter (National Scientific). […]
The UPLC system was coupled to a QExactive orbitrap mass spectrometer equipped with a HESI II probe (Thermo Fisher Scientific) operating in positive ion mode. […] Quantitation of the data was performed with XCalibur QuanBrowser 2.2 (Thermo Fisher Scientific) using a 5 ppm mass tolerance, by a researcher blinded to the identity of the samples. Pure thymine (T0376), and uracil (U1128) were obtained from Sigma-Aldrich and dihydrothymine (L01996), and dihydrouracil (L01918) were obtained from Alfa Aesar and were run in half-log serial dilution (3 nM-100 μM) to confirm chromatographic retention times and generate standard curves for quantitation of each analytical batch.

HMLE-Twist-ER cells [2] = assay: in vitro mammosphere formation assay; assay type: cell-based, human; details: HMLE-Twist-ER cells expressing shDPYD_1, exogenous addition of metabolite
Method: 500 cells/well were seeded in 96-well ultra-low adhesion plates (Corning, 3474) in MammoCult Basal Medium (Stem Cell Technology, 05621) containing 2.6% methylcellulose (Stem Cell Technology, H4100) and 10% MammoCult Proliferation Supplements (Stem Cell Technology, 05621), supplemented with 0.5 μg/ml hydrocortisone, 4 μg/ml Heparin and Pen/strep. Spheres were counted 12-14 days later.

Q: How did the “increase of cellular DHU/uracil molar ratio” value (HMLE-Twist-ER cells [1]) turn out when 4-hydroxytamoxifen [OHT] was run?
A: 5 fold

Q: Which “rescue of mammosphere formation” value (HMLE-Twist-ER cells [2]) does the source give for CC1CNC(=O)NC1=O (stereo not shown) [DHT, dihydrothymine] here?
A: dose-dependent rescue of mammosphere formation

Q: Which “rescue of mammosphere formation” value (HMLE-Twist-ER cells [2]) does the source give for O=C1CCNC(=O)N1 [DHU, dihydrouracil] here?
A: more strongly than uracil; also recorded: dose-dependent rescue of mammosphere formation

Q: For O=c1cc[nH]c(=O)[nH]1 [uracil], which “rescue of mammosphere formation” value (HMLE-Twist-ER cells [2]) is on record?
A: significantly smaller effect
